Residue numbers refer to the chain shown, from its start.
What was measured:
[1] = molecular target: T1, Y2 receptor binding sites in rat hippocampus (Rattus norvegicus, UniProt Q9ERC0); assay: Ex vivo Y2 receptor occupancy in rats (autoradiography); settings: SC administration (10 mg/kg)
T1 construct: from tissue; host or cells: rat brain sections (hippocampus) after in vivo dosing
T1 sequence (Q9ERC0 1-381): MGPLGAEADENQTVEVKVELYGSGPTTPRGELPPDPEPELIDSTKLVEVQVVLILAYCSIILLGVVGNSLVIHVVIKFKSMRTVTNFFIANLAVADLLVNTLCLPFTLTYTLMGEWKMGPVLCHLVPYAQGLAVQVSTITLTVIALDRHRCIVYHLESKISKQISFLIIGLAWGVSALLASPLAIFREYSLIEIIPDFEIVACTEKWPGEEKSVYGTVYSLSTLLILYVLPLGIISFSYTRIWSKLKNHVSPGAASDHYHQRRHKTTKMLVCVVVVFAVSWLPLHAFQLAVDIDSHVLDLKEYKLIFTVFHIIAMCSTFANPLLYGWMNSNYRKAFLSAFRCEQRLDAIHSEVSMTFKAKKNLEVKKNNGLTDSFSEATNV
Description: The pharmacokinetic, blood-brain barrier penetration and ex vivo receptor occupancy studies were performed as described in Bonaventure, P., D. Nepomuceno, C. Mazur, B. Lord, D. A. Rudolph, J. A. Jablonowski, N. I. Carruthers and T. W. Lovenberg, J Pharmacol Exp Ther. 2004, 308, 1130.
The compound of formula (A) was formulated in 20% hydroxypropylbetacyclodextrine. Subcutaneous (SC), oral (PO) or intravenous (IV) dosing was followed by blood sampling via cardiac puncture over a time course. Blood samples consisted of 250 μl samples taken from the heart using a 23-gauge needle into 1.5 ml micro-centrifuge tubes. Brains were removed from the animals and bisected down the midsagittal plane. One hemisphere was frozen on dry ice for ex vivo receptor binding autoradiography and the other was homogenized for LC/MS-MS analysis.
Ex vivo receptor binding autoradiography was performed on brain sections. Twenty-micron-thick coronal sections at the level of the […] regions were collected and incubated for 10 min with 100 pM [^125I]PYY in Krebs-Ringer phosphate buffer (KRP) at pH 7.4 supplemented with 0.1% BSA, 0.05% bacitracin, and 1 μM BIBP-3226 for Y1 receptor occlusion. The sections were not washed prior to incubation and were incubated 10 minutes to avoid dissociation. Nonspecific binding was determined using adjacent sections incubated in the presence of 1 μM unlabelled hNPY. At the end of the incubation, sections were washed 4 times (4 minutes each) in ice cold buffer, dipped in deionized water and rapidly dried under a stream of cold air. Sections were exposed to a Fujifilm Imaging Plate (BAS-MS2025) for 12 hours. The Phosphor Imaging Plate was scanned using a Fuji Bio-Imaging Analyzer System (BAS-5000). The digitized computer images generated by the scanner were visualized and quantified using ImageGauge V3.12 software (Fujifilm).

human Y2 receptor = molecular target: T2, human Y2 receptor (Homo sapiens, UniProt P49146); assay: Neuropeptide Y2 radioligand binding assay, [125I]PYY, KAN-Ts cells; settings: KANT-S cells, mean ± S.E.M., read-out: hY2 pKi (converted)
T2 construct: KAN-Ts endogenously expressing Y2 receptors were used; endogenous in cells; host or cells: KAN-Ts cells
T2 sequence (P49146 1-381): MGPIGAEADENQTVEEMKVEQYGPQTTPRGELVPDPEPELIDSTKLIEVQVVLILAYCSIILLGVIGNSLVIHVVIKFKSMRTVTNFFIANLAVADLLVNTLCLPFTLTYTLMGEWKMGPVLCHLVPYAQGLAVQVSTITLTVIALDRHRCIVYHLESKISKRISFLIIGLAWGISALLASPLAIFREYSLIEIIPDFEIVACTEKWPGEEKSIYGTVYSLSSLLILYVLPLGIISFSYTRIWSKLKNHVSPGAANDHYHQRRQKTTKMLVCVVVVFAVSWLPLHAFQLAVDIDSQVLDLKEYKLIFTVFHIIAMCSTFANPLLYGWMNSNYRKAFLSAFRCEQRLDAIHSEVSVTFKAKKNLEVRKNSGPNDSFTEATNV
Description: (§1) Radioligand binding assays for the human and rat/mouse Y2 receptor were performed as described in Bonaventure, P., D. Nepomuceno, C. Mazur, B. Lord, D. A. Rudolph, J. A. Jablonowski, N. I. Carruthers and T. W. Lovenberg, J Pharmacol Exp Ther. 2004, 308, 1130.
(§2) KAN-Ts endogenously expressing Y2 receptors were used, for the rat and mouse Y2 receptor, membranes from rat or mouse hippocampus were prepared. Membranes were incubated with [^125I]PYY (80 pM) in the presence or absence of test compound for 1 h at rt. The reaction was stopped by filtration through GF/C filter plates pre-soaked in 0.3% polyethylenimine and subsequently washed with Tris-HCl, 50 mM, 5 mM EDTA buffer. Plates were dried for 1 h in a 55° C. oven, scintillation fluid was added and the radioactivity was counted in a Packard TopCount. Specific binding to the NPY receptor subtypes was determined by radioactivity that was bound in the presence of 1 μM NPY.
(§3) Apparent Ki values were calculated as K=IC50/(1+C/KD), where C is concentration of the radioligand and pKi=−log Ki. Data presented below are expressed as mean±S.E.M.

MTP = MTP (Homo sapiens, UniProt P55157); assay: MTP assay (triglyceride transfer between vesicles); assay type: biochemical; settings: read-out: MTP pIC50 (converted)
Description: MTP activity was measured using an assay similar to one described by J. R. Wetterau and D. B. Zilversmit in Chemistry and Physics of Lipids (1985) 38, 205-222.
In order to prepare the donor and acceptor vesicles, the appropriate lipids in chloroform were put into a glass test tube and dried under a stream of nitrogen. A buffer containing 15 mM Tris-HCl (pH 7.5), 1 mM ethylenediamine tetra-acetic acid, 40 mM NaCl, 0.02% NaN3 (assay buffer) was added to the dried lipid. The mixture was vortexed briefly and the lipids were then allowed to hydrate for 20 minutes on ice. Vesicles were then prepared by bath sonication (using a Branson 2200 device) at room temperature for at most 15 minutes. Butylated hydroxytoluene was included in all vesicle preparations at a concentration of 0.1%. The lipid transfer assay mixture contained donor vesicles (40 nmole phosphatidylcholine, 7.5 mole % cardiolipin and 0.25 mole % glycerol tri[1-^14C]-oleate), acceptor vesicles (240 nmol phosphatidylcholine) and 5 mg bovine serum albumin in a total volume of 675 μl in a 1.5 ml microcentrifuge tube. Test compound was added dissolved in dimethylsulfoxide (0.13% final concentration). After 5 minutes of pre-incubation at 37° C., the reaction was started by the addition of MTP in 100 μl of a dialysis buffer. The reaction was stopped by the addition of 400 μl […] (DEAE)-52 cellulose (Sephadex) pre-equilibrated in 15 mM Tris-HCl (pH 7.5), 1 mM ethylenediamine tetra-acetic acid and 0.02% NaN3 (1:1 volume/volume). The mixture was agitated for 4 minutes and centrifuged for 2 minutes at maximum speed in an Eppendorf centrifuge (4° C.) to pellet the DEAE-52-bound donor vesicles. An aliquot of the supernatant containing the acceptor liposomes was counted and the [^14C]-counts were used to calculate the percent triglyceride transfer from donor to acceptor vesicles.
Representative compounds of the present invention were measured for binding against the MTP receptor, as described above, with results as listed in Table 2 below.

hY2 = molecular target: T3, hY2 (Homo sapiens, UniProt P49146); assay: Ca2+ mobilization assay (FLIPR) in KAN-Ts cells; assay type: cell-based; settings: KANT-S cells, inhibition of PYY stimulated Ca2+ increase, read-out: hY2 pKB (converted)
T3 construct: KAN-Ts endogenously expressing Y2 receptors were used; endogenous in cells; host or cells: KAN-Ts cells stably expressing chimeric G proteins
T3 sequence (P49146 1-381): T2 sequence (P49146 1-381)
Description: The assay was performed using the fluorimetric imaging plate reader (FLIPR) format as described in Dautzenberg, F. M., Biochemical Pharmacology 2005, 69, 1493.
KAN-Ts cells stably expressing chimeric G proteins were seeded at a density of 100,000 cells into poly-d-lysine coated 384-well blackwall, clear-bottom microtiter plates (Corning, N.Y.). One day later, the medium was removed and 50 μl loading medium DMEM high glucose, without serum, supplemented with 10 mM HEPES-acid, 0.1% BSA, 5 mM probenecid and 2 μM Fluo-3AM was added. Cells were loaded for 1 h at 37° C., washed twice with 50 μl assay buffer (5 mM HEPES-acid, 140 mM NaCl, 1 mM MgCl2, 5 mM KCl, 10 mM glucose) and then 30 μl assay buffer was added. Cells were further pre-incubated at room temperature before adding agonists or agonists plus antagonists in 20 μl assay buffer and then measured on a T-channel fluorometric imaging plate reader (FLIPR, Molecular Devices, Sunnyvale, Calif.).
Antagonistic potency values were converted to apparent pKB values using a modified Cheng-Prusoff correction. Apparent pKB=−log IC50/1+[conc agonist/EC50]. Data below are expressed as mean±S.E.M.
The in vitro antagonistic properties of the compound of formula (A) were confirmed using Ca^2+ measurement.

rat Y2 receptor = molecular target: T4, rat Y2 receptor (Rattus norvegicus, UniProt Q9ERC0); assay: Neuropeptide Y2 radioligand binding assay, [125I]PYY, rat hippocampus membranes; settings: read-out: rY2 pKi (converted)
T4 construct: membranes from rat or mouse hippocampus were prepared; from tissue; host or cells: rat hippocampus membranes
T4 sequence (Q9ERC0 1-381): T1 sequence (Q9ERC0 1-381)
Description: as §1, §2, §3

mouse Y2 receptor = molecular target: T5, mouse Y2 receptor (Mus musculus, UniProt P97295); assay: Neuropeptide Y2 radioligand binding assay, [125I]PYY, mouse hippocampus membranes; settings: read-out: mY2 pKi (converted)
T5 construct: membranes from rat or mouse hippocampus were prepared; from tissue; host or cells: mouse hippocampus membranes
T5 sequence (P97295 1-381): T1 sequence (Q9ERC0 1-381) with L4V, L20P, S23P, P25H, V52I, Q163R, V175I, K247R, T266M, L371P
Description: as §1, §2, §3

MTP, sequence (P55157 19-894, species assumed): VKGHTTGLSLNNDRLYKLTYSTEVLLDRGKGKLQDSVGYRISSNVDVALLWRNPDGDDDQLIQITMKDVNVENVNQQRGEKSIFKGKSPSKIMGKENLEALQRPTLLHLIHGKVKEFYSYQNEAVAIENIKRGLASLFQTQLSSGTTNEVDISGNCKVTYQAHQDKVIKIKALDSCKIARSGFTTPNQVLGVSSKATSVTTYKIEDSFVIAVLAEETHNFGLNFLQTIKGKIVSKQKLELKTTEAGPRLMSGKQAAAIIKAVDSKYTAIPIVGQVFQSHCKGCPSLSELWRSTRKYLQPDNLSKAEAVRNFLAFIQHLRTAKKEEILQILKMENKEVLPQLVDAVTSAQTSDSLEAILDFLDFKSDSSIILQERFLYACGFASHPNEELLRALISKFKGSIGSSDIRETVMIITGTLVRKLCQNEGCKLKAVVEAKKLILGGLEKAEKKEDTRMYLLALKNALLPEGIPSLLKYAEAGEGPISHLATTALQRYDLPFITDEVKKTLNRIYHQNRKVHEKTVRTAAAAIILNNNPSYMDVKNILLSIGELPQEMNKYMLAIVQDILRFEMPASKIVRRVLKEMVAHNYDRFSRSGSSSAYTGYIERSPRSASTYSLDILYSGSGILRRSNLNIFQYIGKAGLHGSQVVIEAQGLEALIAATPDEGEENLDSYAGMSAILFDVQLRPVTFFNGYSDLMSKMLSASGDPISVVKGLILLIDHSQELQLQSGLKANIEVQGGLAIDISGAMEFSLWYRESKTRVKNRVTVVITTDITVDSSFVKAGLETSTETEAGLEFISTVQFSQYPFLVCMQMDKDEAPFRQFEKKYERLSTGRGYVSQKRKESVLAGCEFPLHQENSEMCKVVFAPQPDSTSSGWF
MTP, sequence (P07237 18-508 partner, species assumed): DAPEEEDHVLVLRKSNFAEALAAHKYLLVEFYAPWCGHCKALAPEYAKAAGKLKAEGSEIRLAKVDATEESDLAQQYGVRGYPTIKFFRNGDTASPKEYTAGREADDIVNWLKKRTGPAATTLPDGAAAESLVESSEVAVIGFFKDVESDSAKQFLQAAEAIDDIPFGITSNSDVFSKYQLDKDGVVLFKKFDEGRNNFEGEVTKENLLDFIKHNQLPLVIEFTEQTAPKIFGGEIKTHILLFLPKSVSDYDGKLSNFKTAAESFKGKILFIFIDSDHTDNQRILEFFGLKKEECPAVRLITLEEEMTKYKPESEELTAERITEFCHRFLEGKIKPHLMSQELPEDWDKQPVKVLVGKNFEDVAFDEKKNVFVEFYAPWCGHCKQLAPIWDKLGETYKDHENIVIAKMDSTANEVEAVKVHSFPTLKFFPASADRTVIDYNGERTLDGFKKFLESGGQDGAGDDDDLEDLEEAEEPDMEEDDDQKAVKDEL

| SMILES | receptor occupancy at 10 mg/kg ([1]; rat, read-out: Y2 receptor occupancy in rat brain) [%] | Ki (human Y2 receptor) [nM] | IC50 (MTP) [nM] | Kb (hY2) [nM] | Ki (rat Y2 receptor) [nM] | Ki (mouse Y2 receptor) [nM] | Y2 receptor occupancy in rat brain [1] |
| --- | --- | --- | --- | --- | --- | --- | --- |
| CCNC(=O)C(c1ccccc1)N1CCN(c2ccc(NC(=O)c3ccccc3-c3cccnc3)cc2F)CC1 (racemic) [Cmpd (B), N-{4-[4-(ethylcarbamoyl-phenyl-methyl)-piperazin-1-yl]-3-fluorophenyl}-2-pyridin-3-yl-benzamide] | ~40 | 32.4 | 251 | 50.1 |  |  |  |
| CCN(CC)C(=O)C(c1ccccc1)N1CCN(c2ccc(NC(=O)c3ccccc3-c3cccnc3)cc2F)CC1 (single isomer, unassigned; (+)) [(+)-Cmpd (A), N-{4-[4-(Diethylcarbamoyl-phenyl-methyl)-piperazin-1-yl]-3-fluoro-phenyl}-2-pyridin-3-yl-benzamide] |  | 7.94 | 316 | 0.398 | 10 |  |  |
| CCN(CC)C(=O)C(c1ccccc1)N1CCN(c2ccc(NC(=O)c3ccccc3-c3cccnc3)cc2F)CC1 (single isomer, unassigned; (-)) [(−)-Cmpd (A), (−)-N-{4-[4-(Diethylcarbamoyl-phenyl-methyl)-piperazin-1-yl]-3-fluoro-phenyl}-2-pyridin-3-yl-benzamide] |  | 3.16 | 6310 | 0.794 | 12 | 7.94 |  |
| CCN(CC)C(=O)C(c1ccccc1)N1CCN(c2ccc(NC(=O)c3ccccc3-c3ccccc3)cc2F)CC1 (stereo not shown) [Cmpd (C), Biphenyl-2-carboxylic acid {4-[4-(diethylcarbamoyl-phenyl-methyl)-piperazin-1-yl]-3-fluoro-phenyl}-amide] |  | 7.59 | 50.1 | 6.31 | 25.1 |  | did not show any significant level of Y2 receptor occupancy |

More lines, main results first:

| receptor occupancy at 10 mg/kg ([1]; rat, read-out: Y2 receptor occupancy in rat brain) [%] | Ki (human Y2 receptor) [nM] | IC50 (MTP) [nM] | Kb (hY2) [nM] | Ki (rat Y2 receptor) [nM] | Ki (mouse Y2 receptor) [nM] | SMILES | Y2 receptor occupancy in rat brain [1] |
| --- | --- | --- | --- | --- | --- | --- | --- |
|  | 229 | 3980 |  |  |  | CCNC(=O)C(c1ccccc1)N1CCN(c2ccc(NC(=O)c3ccccc3-c3cccnc3)cc2F)CC1 (single isomer, unassigned; (+)) [(+)-Cmpd (B), N-{4-[4-(ethylcarbamoyl-phenyl-methyl)-piperazin-1-yl]-3-fluoro-phenyl}-2-pyridin-3-yl-benzamide] |  |
|  | 39.8 | 398 |  |  |  | CCNC(=O)C(c1ccccc1)N1CCN(c2ccc(NC(=O)c3ccccc3-c3cccnc3)cc2F)CC1 (single isomer, unassigned; (-)) [(−)-Cmpd (B), N-{4-[4-(ethylcarbamoyl-phenyl-methyl)-piperazin-1-yl]-3-fluoro-phenyl}-2-pyridin-3-yl-benzamide] |  |
